# Read-outs that look alike come from different tables or passages of the source.
# Tests used:
# [1] = tested on: Leishmania donovani axenic amastigote parasites; assay: Leishmania donovani axenic amastigote proliferation assay; format: cell-based; conditions: read-out: L. donovani amastigotes EC50
# Outline: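 L. donovani axenic amastigotes (9600/well) in RPMI 1640 with 20% heat-inactivated FBS, folic acid, adenosine, glucose and 25 mM MES, pH 5.5, were incubated with compounds for 2 days at 37 °C, 5% CO2. Viability read by CellTiter-Glo luminescence; EC50 calculated.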
# [2] = tested on: L. donovani HU3 strain in mouse peritoneal macrophages; assay: Assay for proliferation of Leishmania parasites in mouse peritoneal macrophages; format: cell-based, Leishmania donovani; conditions: Leishmania donovani, Peritoneal macrophage
# Outline: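 BALB/c peritoneal macrophages infected 24 h with L. donovani HU3 amastigotes taken from spleens of mice infected 9–11 weeks, then treated with compound for 5 days at 37° C, 5% CO2. Parasite nuclei counted by SYBR Green imaging after fixation; EC50 from percentage inhibition.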
# [3] = read-out: L. donavani Macrophage EC50
# [4] = read-out: L. donavani Macrophage EC50 (μM)
SMILES,EC50 ([1]; axenic amastigotes in vitro),"EC50 [2, 3]","EC50 [2, 4]","EC50 ([2]; 120 h, L. donovani in mouse peritoneal macrophages, 5 days culture, SybrGreen parasite nuclei count, read-out: EC50)",EC50 [1]
O=C(Nc1ccc(C(F)(F)F)cc1)Nc1ccc(F)c(-c2nc3ncc(N4CCCCC4)cc3o2)c1 [Compound 397],> 25 µM,> 30 µM,–,–,–
O=C(Nc1ccc(C(F)(F)F)cc1)Nc1ccc(F)c(-c2nc3ncc(-c4ccc(N5CCCCC5)cc4)cc3o2)c1 [Compound 399],15.8 µM,5.9 µM,–,–,–
Nc1ccc(-c2cnc3nc(-c4cc(NC(=O)Nc5ccc(C(F)(F)F)cc5)ccc4F)oc3c2)cn1 [Compound 400],1.62 µM,4 µM,–,–,–
CC(=O)Nc1ccc(-c2cnc3nc(-c4cc(NC(=O)Nc5ccc(C(F)(F)F)cc5)ccc4F)oc3c2)cc1 [Compound 401],4.7 µM,3.12 µM,–,–,–
COC(=O)Nc1ccc(-c2cnc3nc(-c4cc(NC(=O)Nc5ccc(C(F)(F)F)cc5)ccc4F)oc3c2)cc1 [Compound 402],> 24 µM,10 µM,–,–,–
CN(C)c1ccc(-c2cnc3nc(-c4cc(NC(=O)Nc5ccc(C(F)(F)F)cc5)ccc4F)oc3c2)cn1 [Compound 403],17.4 µM,> 50 µM,–,–,–
CCc1noc(C(=O)Nc2ccc(F)c(-c3nc4ncc(Br)cc4o3)c2)n1 [Compound 405],> 25 µM,> 50 µM,–,–,–
CC(C)c1nnc(C(=O)Nc2ccc(F)c(-c3nc4ncc(Br)cc4o3)c2)o1 [Compound 406],> 25 µM,> 50 µM,–,–,–
CC(C)(C)c1nnc(C(=O)Nc2ccc(F)c(-c3nc4ncc(Br)cc4o3)c2)o1 [Compound 407],> 25 µM,> 4.2 µM,–,–,–
O=C(Nc1ccc(F)c(-c2nc3ncc(Br)cc3o2)c1)c1cnco1 [Compound 408],3.8 µM,> 50 µM,–,–,–
Cc1ncoc1C(=O)Nc1ccc(F)c(-c2nc3ncc(Br)cc3o2)c1 [Compound 409],7.5 µM,> 50 µM,–,–,–
O=C(Nc1ccc(F)c(-c2nc3ncc(Br)cc3o2)c1)c1cocn1 [Compound 410],> 25 µM,> 50 µM,–,–,–
COC(=O)Nc1ccc(-c2cnc3nc(-c4cc(NC(=O)c5ccco5)ccc4F)oc3c2)cc1 [Compound 414],0.2 µM,–,1.17 µM,–,–
"Cc1cnc2nc(-c3cc(NC(=O)c4ccco4)ccc3Cl)[nH]c2c1 [Example 1, N-(4-chloro-3-{6-methyl-1H-imidazo[4,5-b]pyridin-2-yl}phenyl)furan-2-carboxamide]",2.2 µM,9 µM,–,–,–
"O=C(Nc1ccc(Cl)c(-c2nc3ncc(-c4ccc(CCN5CCOCC5)cc4)cc3[nH]2)c1)c1ccco1 [Example 6, N-[4-chloro-3-(6-{4-[2-(morpholin-4-yl)ethyl]phenyl}-1H-imidazo[4,5-b]pyridin-2-yl)phenyl]furan-2-carboxamide]",1.96 µM,0.65 µM,–,–,–
"C=Cc1cnc2nc(-c3cc(NC(=O)c4ccco4)ccc3Cl)[nH]c2c1 [Example 74, N-(4-chloro-3-{6-ethenyl-1H-imidazo[4,5-b]pyridin-2-yl}phenyl)furan-2-carboxamide]",0.45 µM,3.09 µM,–,–,–

SMILES,EC50 ([1]; axenic amastigotes in vitro),"EC50 [2, 3]","EC50 [2, 4]","EC50 ([2]; 120 h, L. donovani in mouse peritoneal macrophages, 5 days culture, SybrGreen parasite nuclei count, read-out: EC50)",EC50 [1]
"CCCc1cnc2nc(-c3cc(NC(=O)c4ccco4)ccc3Cl)[nH]c2c1 [Example 75, N-(4-chloro-3-{6-propyl-1H-imidazo[4,5-b]pyridin-2-yl}phenyl)furan-2-carboxamide]",9.3 µM,25.6 µM,–,–,–
"O=C(Nc1ccc(Cl)c(-c2nc3ncc(C(F)(F)F)cc3[nH]2)c1)c1ccco1 [Example 276, N-{4-Chloro-3-[6-(trifluoromethyl)-1H-imidazo[4,5-b]pyridin-2-yl]phenyl}furan-2-carboxamide]",1.56 µM,6 µM,–,–,–
"CC(C)OC(=O)Nc1ccc(Cl)c(-c2nc3ncc(C#N)cc3[nH]2)c1 [Example 287, Propan-2-yl N-(4-chloro-3-{6-cyano-1H-imidazo[4,5-b]pyridin-2-yl}phenyl)carbamate]",1.44 µM,0.078 µM,–,~0.08 µM,–
"O=C(Nc1ccc(F)c(-c2nc3ncc(-c4ccccc4)cc3[nH]2)c1)N1CCCC1 [Example 309, N-(4-fluoro-3-{6-phenyl-1H-imidazo[4,5-b]pyridin-2-yl}phenyl)pyrrolidine-1-carboxamide]",1.97 µM,4.5 µM,–,–,–
"CC(C)OC(=O)Nc1ccc(Cl)c(-c2nc3ncc(-c4ccccc4)cc3[nH]2)c1 [Example 333, Propan-2-yl N-(4-chloro-3-{6-phenyl-1H-imidazo[4,5-b]pyridin-2-yl}phenyl)carbamate]",0.66 µM,0.048 µM,–,–,–
"COC(=O)Nc1ccc(-c2cnc3nc(-c4cc(NC(=O)N5CCC(F)(F)C5)ccc4Cl)[nH]c3c2)cc1 [Example 343, Methyl N-[4-(2-{2-chloro-5-[(3,3-difluoropyrrolidin-1-yl)carbonylamino]phenyl}-1H-imidazo [4,5-b]pyridin-6-yl)phenyl]carbamate]",–,0.51 µM,–,–,0.245 µM
"O=C(Nc1ccc(F)c(-c2nc3ncc(Cl)cc3[nH]2)c1)c1ccco1 [Example 357, N-(3-{6-chloro-1H-imidazo[4,5-b]pyridin-2-yl}-4-fluorophenyl)furan-2-carboxamide]",0.6 µM,2.51 µM,–,–,–
"CN(C)Cc1ccc(C(=O)Nc2ccc(Cl)c(-c3nc4ncc(Br)cc4[nH]3)c2)o1 [Example 372, N-(3-{6-bromo-1H-imidazo[4,5-b]pyridin-2-yl}-4-chlorophenyl)-5-[(dimethylamino)methyl]furan-2-carboxamide]",> 25 µM,2.52 µM,–,–,–
"Cc1ccc(C(=O)Nc2ccc(F)c(-c3nc4ncc(-c5ccccc5)cc4[nH]3)c2)o1 [Example 380, N-(4-fluoro-3-{6-phenyl-1H-imidazo[4,5-b]pyridin-2-yl}phenyl)-5-methylfuran-2-carboxamide]",5.7 µM,3.3 µM,–,–,–
"Cc1ccc(C(=O)Nc2ccc(F)c(-c3nc4ncc(-c5ccsc5)cc4[nH]3)c2)o1 [Example 381, N-{4-fluoro-3-[6-(thiophen-3-yl)-1H-imidazo[4,5-b]pyridin-2-yl]phenyl}-5-methylfuran-2-carboxamide]",2.5 µM,1.6 µM,–,–,–
"COCn1c(-c2cc(NC(=O)N3CCCC3)ccc2Cl)nc2cc(Br)cnc21 [Example 385, N-{3-[6-bromo-3-(methoxymethyl)-3H-imidazo[4,5-b]pyridin-2-yl]-4-chlorophenyl}pyrrolidine-1-carboxamide]",–,> 10.9 µM,–,–,> 23.2 µM
COCn1c(-c2cc(NC(=O)N3CCCC3)ccc2Cl)nc2ncc(Br)cc21 [Example 386],4.3 µM,4.3 µM,–,–,–
"O=C(Nc1ccc(C(F)(F)F)cc1)Nc1ccc(F)c(-c2nc3ncc(-c4ccc(CCN5CCOCC5)cc4)cc3o2)c1 [Example 389, 3-[4-Fluoro-3-(6-{4-[2-(morpholin-4-yl)ethyl]phenyl}-[3]oxazolo[4,5-b]pyridin-2-yl)phenyl]-1-[4-(trifluoromethyl)phenyl]urea]",11.6 µM,11.4 µM,–,–,–
"CCc1nnc(C(=O)Nc2ccc(F)c(-c3nc4ncc(Br)cc4o3)c2)o1 [Example 404, N-(3-{6-bromo-[1,3]oxazolo[4,5-b]pyridin-2-yl}-4-fluorophenyl)-5-ethyl-1,3,4-oxadiazole-2-carboxamide]",> 25 µM,> 50 µM,–,–,–
"O=C(Nc1ccc(F)c(-c2nc3ncc(-c4ccccc4)cc3o2)c1)N1CCCC1 [Example 415, N-(4-fluoro-3-{6-phenyl-[1,3]oxazolo[4,5-b]pyridin-2-yl}phenyl)pyrrolidine-1-carboxamide]",0.4 µM,–,0.1 µM,–,–
